Assay results taken from patent US20240101551A1, “CRYSTAL FORM AND SALT FORM OF BROMINE DOMAIN PROTEIN INHIBITOR AND PREPARATION METHOD THEREFOR” (CHIA TAI TIANQING PHARMACEUTICAL GROUP CO., LTD., priority 2020, published 2024).
Values joined by “and” are separate entries in the source; they are usually repeats but may differ in a detail not shown here. Equal entries are not always repeated.

Tests used:
Assay type in all cases: physicochemical
[1] = Study on stability under influencing factors (high temperature, high humidity, light) of the crystal forms
Experimental: In order to evaluate the solid stability of the crystal forms of the present application, the stability of each of the crystal form I, the crystal form A, the crystal form D, the crystal form E and the crystal form F under influencing factors (high temperature, high humidity and light) was investigated. Each of the crystal forms was stored under the high temperature condition (60±2° C., open (weighing bottle)), and the high humidity condition (room temperature, 92.5%±5% RH, open (weighing bottle) and packaged) for 5 days, 10 days and 30 days, and under the ICH light condition (5500 Lux, 0.9 w/m^2, closed (weighing bottle) and packaged) for 5 days and 10 days. The inner packaging material of the packaged sample was a medical low-density polyethylene bag, and the outer packaging material is a medical polyester/aluminum/polyethylene composite bag. The samples after the storage were characterized by properties, purity (HPLC), crystal form (XRD) and water content to detect the changes in the crystal form and purity. The results are shown in Tables 8-12 (“^#” indicates the ICH condition).

[2] = Study on stability of the crystal form I under influencing factors (Experimental Example 2)
Experimental: In order to evaluate the solid stability of the crystal form I of the present application, the stability of the crystal form I under influencing factors (high temperature, high humidity and light) was investigated. The crystal form I was stored under the high temperature condition (40° C., open (weighing bottle)), the high temperature condition (60° C., open (weighing bottle)), the high humidity condition (room temperature, 75% RH, open (weighing bottle)) and the high humidity condition (room temperature, 92.5% RH, open (weighing bottle) and packaged) for 5 days, 10 days and 30 days, and under the ICH light condition (5500 Lux, 0.9 w/m^2, open (weighing bottle) and packaged) for 5 days and 10 days. The inner packaging material of the packaged sample was a double-layer low-density polyethylene bag, and the outer packaging material is a polyester/aluminum/polyethylene composite bag for medicine packaging. The samples after the storage were determined for properties, related substances (HPLC), crystal form (XRD), water content and content to investigate the influence of high temperature, high humidity and light conditions on the product. The results are shown in Table 13 (“^#” indicates the ICH condition).

[3] = Particle size distribution test after jet milling (light scattering); conditions: for X90 Mean: mean of 3 experiments; for X90: single experiments 1-3
Experimental: The particle size distribution X90 described herein is determined by a light scattering method (Method 3 of Determination of Particle Size and Distribution of General Chapter 0982, Chinese Pharmacopoeia, Volume IV, 2020 Edition).
After jet milling, the crystal form I was tested for the particle size distribution by referring to Method 3 (a light scattering method) of Determination of Particle Size and Distribution of General Chapter 0982, Chinese Pharmacopoeia, Volume IV, 2020 Edition, with the specific steps as follows: 10 mg of the sample was weighed and placed in a laser scattering particle size distribution analyzer for testing (trigger conditions: 10 s, 1%; dispersion pressure: 2.0 bar).

[4] = 92.5% RH, room temperature, open, 5 days
[5] = 92.5% RH, room temperature, open, 10 days
[6] = 92.5% RH, room temperature, open, 30 days
[7] = Light (ICH, 5500 Lux), closed, 10 days
[8] = 75% RH, room temperature, open, 5 days
[9] = 75% RH, room temperature, open, 10 days
[10] = 75% RH, room temperature, open, 30 days
[11] = Light (ICH, 5500 Lux), open, 5 days
[12] = Light (ICH, 5500 Lux), open, 10 days

- Impurity content ([1]; 60° C., open, 5 days): 1.23%
- Crystal form change ([1]; 60° C., open, 10 days): Unchanged
- Impurity content ([1]; 60° C., open, 10 days): 1.21%
- Water content ([1]; 60° C., open, 10 days): 0.19%
- Crystal form change ([1]; 60° C., open, 30 days): Unchanged
- Impurity content ([1]; 60° C., open, 30 days): 1.31%
- Water content ([1]; 60° C., open, 30 days): 0.15%
- Crystal form change ([1]; 92.5% RH, packaged, 30 days): Unchanged
- Impurity content ([1]; 92.5% RH, packaged, 30 days): 1.32%
- Water content ([1]; 92.5% RH, packaged, 30 days): 0.23%
- Impurity content [1, 4]: 1.23%
- Crystal form change [1, 5]: Unchanged
- Impurity content [1, 5]: 1.23%
- Water content [1, 5]: 0.36%
- Crystal form change [1, 6]: Unchanged
- Impurity content [1, 6]: 1.30%
- Water content [1, 6]: 0.31%
- Crystal form change ([1]; Light (ICH), packaged, 10 days): Unchanged
- Impurity content ([1]; Light (ICH), packaged, 10 days): 1.21%
- Water content ([1]; Light (ICH), packaged, 10 days): 0.30%
- Impurity content ([1]; Light (ICH, 5500 Lux), closed, 5 days): 1.18%
- Crystal form change [1, 7]: Unchanged
- Impurity content [1, 7]: 1.21%
- Water content [1, 7]: 0.34%
- Impurity content ([1]; starting crystal form): 1.20%
- Water content ([1]; starting crystal form): 0.39%
- Crystal form change ([2]; 40° C., open, 5 days): Unchanged
- Impurity content ([2]; 40° C., open, 5 days): 0.06%
- Water content ([2]; 40° C., open, 5 days): 0.02%
- Crystal form change ([2]; 40° C., open, 10 days): Unchanged
- Impurity content ([2]; 40° C., open, 10 days): 0.08%
- Water content ([2]; 40° C., open, 10 days): 0.01%
- Crystal form change ([2]; 40° C., open, 30 days): Unchanged
- Impurity content ([2]; 40° C., open, 30 days): 0.08%
- Water content ([2]; 40° C., open, 30 days): 0.02%
- Crystal form change ([2]; 60° C., open, 5 days): Unchanged
- Impurity content ([2]; 60° C., open, 5 days): 0.07%
- Water content ([2]; 60° C., open, 5 days): 0.01%
- Crystal form change ([2]; 60° C., open, 10 days): Unchanged
- Impurity content ([2]; 60° C., open, 10 days): 0.08%
- Water content ([2]; 60° C., open, 10 days): 0.01%
- Crystal form change ([2]; 60° C., open, 30 days): Unchanged
- Impurity content ([2]; 60° C., open, 30 days): 0.09%
- Water content ([2]; 60° C., open, 30 days): 0.02%
- Crystal form change [2, 8]: Unchanged
- Impurity content [2, 8]: 0.06%
- Water content [2, 8]: 0.02%
- Crystal form change [2, 9]: Unchanged
- Impurity content [2, 9]: 0.08%
- Water content [2, 9]: 0.03%
- Crystal form change [2, 10]: Unchanged
- Impurity content [2, 10]: 0.08%
- Water content [2, 10]: 0.04%
- Crystal form change ([2]; 92.5% RH, packaged, 5 days): Unchanged
- Impurity content ([2]; 92.5% RH, packaged, 5 days): 0.06%
- Water content ([2]; 92.5% RH, packaged, 5 days): 0.02%
- Crystal form change ([2]; 92.5% RH, packaged, 10 days): Unchanged
- Impurity content ([2]; 92.5% RH, packaged, 10 days): 0.08%
- Water content ([2]; 92.5% RH, packaged, 10 days): 0.01%
- Crystal form change ([2]; 92.5% RH, packaged, 30 days): Unchanged
- Impurity content ([2]; 92.5% RH, packaged, 30 days): 0.08%
- Water content ([2]; 92.5% RH, packaged, 30 days): 0.03%
- Crystal form change [2, 4]: Unchanged
- Impurity content [2, 4]: 0.06%
- Water content [2, 4]: 0.03%
- Crystal form change [2, 5]: Unchanged
- Impurity content [2, 5]: 0.08%
- Water content [2, 5]: 0.03%
- Crystal form change [2, 6]: Unchanged
- Impurity content [2, 6]: 0.08%
- Water content [2, 6]: 0.06%
- Crystal form change ([2]; Light (ICH), packaged, 5 days): Unchanged
- Impurity content ([2]; Light (ICH), packaged, 5 days): 0.06%
- Water content ([2]; Light (ICH), packaged, 5 days): 0.02%
- Crystal form change ([2]; Light (ICH), packaged, 10 days): Unchanged
- Impurity content ([2]; Light (ICH), packaged, 10 days): 0.08%
- Water content ([2]; Light (ICH), packaged, 10 days): 0.02%
- Crystal form change [2, 11]: Unchanged
- Impurity content [2, 11]: 0.06%
- Water content [2, 11]: 0.01%
- Crystal form change [2, 12]: Unchanged
- Impurity content [2, 12]: 0.08%
- Water content [2, 12]: 0.02%
- Impurity content ([2]; starting crystal form I): 0.05%
- Water content ([2]; starting crystal form I): 0.02%
- X90 Mean ([3]; milling pressure 0.1 MPa): 11.50 μm
- X90 ([3]; milling pressure 0.1 MPa): 11.54 μm and 11.46 μm and 11.50 μm
- X90 Mean ([3]; milling pressure 0.3 MPa): 5.82 μm
- X90 ([3]; milling pressure 0.3 MPa): 5.78 μm and 6.02 μm and 5.67 μm
Compound: Cn1cc(-c2nc(N=S(C)(C)=O)ccc2Oc2ccc(F)cc2F)c2cc[nH]c2c1=O [crystal form I]
